Values of other authors, collected in patent US20170367972A1, “Formulations and Methods of Treatment for Treating Nail Fungal Infections” (priority 2016, published 2017).

How the values were obtained:
dermatophytes [1] = tested on: dermatophytes
dermatophytes [2] = tested on: dermatophytes; remark: listed apart in the source

Row | SMILES | activity against dermatophytes (dermatophytes [1]) | activity against Candida albicans (Candida albicans) | activity against Candida spp. (Candida spp.) | effectiveness in dermatophytic infections (dermatophytes [2]) | activity against nondermophytic molds (nondermophytic molds)
1 | CN(C/C=C/C#CC(C)(C)C)Cc1cccc2ccccc12 [Terbinafine, terbinafine] | fungicidal activity | only fungistatic activity | – | – | –
2 | COC1=CC(=O)C[C@@H](C)[C@]12Oc1c(Cl)c(OC)cc(OC)c1C2=O [griseofulvin] | active in vitro against most dermatophytes | – | no activity | effective only for dermatophytic infections | no activity
